For one assay, the target named is Cannabinoid receptor 1 (Homo sapiens, UniProt P21554). It counts as functional, cell-based.
A further assay addresses T1, Endothelin-1 receptor (Homo sapiens, UniProt P25101).
T1 sequence (P25101 whole entry): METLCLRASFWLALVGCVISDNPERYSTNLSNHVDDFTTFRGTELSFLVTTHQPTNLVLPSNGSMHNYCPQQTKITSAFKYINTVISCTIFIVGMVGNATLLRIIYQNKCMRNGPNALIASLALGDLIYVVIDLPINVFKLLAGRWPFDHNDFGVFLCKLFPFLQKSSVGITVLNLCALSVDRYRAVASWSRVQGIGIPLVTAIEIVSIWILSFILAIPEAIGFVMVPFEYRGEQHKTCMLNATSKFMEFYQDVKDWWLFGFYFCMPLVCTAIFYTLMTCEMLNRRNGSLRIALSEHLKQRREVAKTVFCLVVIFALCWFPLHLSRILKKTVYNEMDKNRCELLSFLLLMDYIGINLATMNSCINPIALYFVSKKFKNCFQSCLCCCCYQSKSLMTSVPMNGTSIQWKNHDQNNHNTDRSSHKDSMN

The target in another assay is Histamine H3 receptor (Homo sapiens, UniProt Q9Y5N1).
Sequence of Histamine H3 receptor (Q9Y5N1 whole entry): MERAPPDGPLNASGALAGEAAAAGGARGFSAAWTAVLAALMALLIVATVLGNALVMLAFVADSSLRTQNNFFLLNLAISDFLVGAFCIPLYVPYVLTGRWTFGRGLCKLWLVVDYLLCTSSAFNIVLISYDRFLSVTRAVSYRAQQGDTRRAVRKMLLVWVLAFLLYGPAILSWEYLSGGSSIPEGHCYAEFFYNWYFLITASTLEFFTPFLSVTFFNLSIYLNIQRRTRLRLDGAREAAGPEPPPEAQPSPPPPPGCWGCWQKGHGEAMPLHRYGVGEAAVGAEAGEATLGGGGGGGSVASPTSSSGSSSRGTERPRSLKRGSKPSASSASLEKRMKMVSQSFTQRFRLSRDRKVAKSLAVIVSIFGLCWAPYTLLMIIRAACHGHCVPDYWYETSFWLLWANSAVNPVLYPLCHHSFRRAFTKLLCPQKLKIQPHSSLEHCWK
For assay [1], the target named is Beta-2 adrenergic receptor (Homo sapiens, UniProt P07550). It counts as functional, cell-based.
Sequence of Beta-2 adrenergic receptor (P07550 whole entry): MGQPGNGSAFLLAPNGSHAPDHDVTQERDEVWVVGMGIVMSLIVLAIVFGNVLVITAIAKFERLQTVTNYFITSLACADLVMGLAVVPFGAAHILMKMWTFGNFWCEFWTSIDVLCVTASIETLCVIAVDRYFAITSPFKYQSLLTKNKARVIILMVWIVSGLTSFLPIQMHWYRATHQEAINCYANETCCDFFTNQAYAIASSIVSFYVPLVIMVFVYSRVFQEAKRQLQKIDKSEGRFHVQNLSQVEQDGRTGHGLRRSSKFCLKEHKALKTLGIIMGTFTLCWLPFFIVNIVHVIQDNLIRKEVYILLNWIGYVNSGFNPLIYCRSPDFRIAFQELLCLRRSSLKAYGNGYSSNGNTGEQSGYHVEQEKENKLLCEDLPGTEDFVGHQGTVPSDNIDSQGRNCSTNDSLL
Assay [2] addresses T2, Gamma-aminobutyric acid receptor subunit alpha-1 (Rattus norvegicus, UniProt P62813).
For assay [3], the target named is T3, Muscarinic acetylcholine receptor M2 (Homo sapiens, UniProt P08172).
T3 sequence (P08172 whole entry): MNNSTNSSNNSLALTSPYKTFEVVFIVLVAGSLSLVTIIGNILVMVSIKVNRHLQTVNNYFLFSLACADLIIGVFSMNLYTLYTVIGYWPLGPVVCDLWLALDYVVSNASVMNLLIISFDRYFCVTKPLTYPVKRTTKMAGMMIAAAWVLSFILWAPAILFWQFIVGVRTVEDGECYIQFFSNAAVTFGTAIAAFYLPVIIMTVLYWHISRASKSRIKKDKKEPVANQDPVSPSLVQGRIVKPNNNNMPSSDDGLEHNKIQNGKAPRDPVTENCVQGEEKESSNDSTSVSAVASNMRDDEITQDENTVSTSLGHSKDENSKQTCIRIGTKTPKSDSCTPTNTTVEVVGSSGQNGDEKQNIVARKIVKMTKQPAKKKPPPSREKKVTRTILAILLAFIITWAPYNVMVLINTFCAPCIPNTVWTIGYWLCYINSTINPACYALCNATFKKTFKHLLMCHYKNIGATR
It counts as functional, cell-based.

The target in assay [4] is Neuronal acetylcholine receptor subunit alpha-4 (Homo sapiens, UniProt P43681).
Sequence of Neuronal acetylcholine receptor subunit alpha-4 (P43681 whole entry): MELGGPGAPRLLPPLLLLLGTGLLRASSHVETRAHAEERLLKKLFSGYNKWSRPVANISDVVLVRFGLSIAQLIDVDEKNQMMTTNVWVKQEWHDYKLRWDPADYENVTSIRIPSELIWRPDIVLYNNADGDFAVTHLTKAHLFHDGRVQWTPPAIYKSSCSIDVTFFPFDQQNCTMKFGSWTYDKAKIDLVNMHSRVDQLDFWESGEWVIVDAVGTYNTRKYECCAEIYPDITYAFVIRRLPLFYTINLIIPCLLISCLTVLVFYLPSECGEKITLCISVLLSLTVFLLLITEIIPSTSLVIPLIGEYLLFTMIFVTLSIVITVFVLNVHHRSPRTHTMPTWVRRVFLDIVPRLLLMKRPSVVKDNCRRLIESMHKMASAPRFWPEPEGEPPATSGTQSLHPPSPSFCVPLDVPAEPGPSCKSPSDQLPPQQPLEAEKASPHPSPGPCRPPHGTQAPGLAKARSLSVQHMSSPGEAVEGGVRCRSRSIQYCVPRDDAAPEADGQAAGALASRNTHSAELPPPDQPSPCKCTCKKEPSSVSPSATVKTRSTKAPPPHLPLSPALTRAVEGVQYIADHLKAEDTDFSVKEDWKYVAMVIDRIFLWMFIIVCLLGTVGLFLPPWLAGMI
For assay [5], the target named is T4, 5-hydroxytryptamine receptor 3A (Homo sapiens, UniProt P46098).
T4 sequence (P46098 whole entry): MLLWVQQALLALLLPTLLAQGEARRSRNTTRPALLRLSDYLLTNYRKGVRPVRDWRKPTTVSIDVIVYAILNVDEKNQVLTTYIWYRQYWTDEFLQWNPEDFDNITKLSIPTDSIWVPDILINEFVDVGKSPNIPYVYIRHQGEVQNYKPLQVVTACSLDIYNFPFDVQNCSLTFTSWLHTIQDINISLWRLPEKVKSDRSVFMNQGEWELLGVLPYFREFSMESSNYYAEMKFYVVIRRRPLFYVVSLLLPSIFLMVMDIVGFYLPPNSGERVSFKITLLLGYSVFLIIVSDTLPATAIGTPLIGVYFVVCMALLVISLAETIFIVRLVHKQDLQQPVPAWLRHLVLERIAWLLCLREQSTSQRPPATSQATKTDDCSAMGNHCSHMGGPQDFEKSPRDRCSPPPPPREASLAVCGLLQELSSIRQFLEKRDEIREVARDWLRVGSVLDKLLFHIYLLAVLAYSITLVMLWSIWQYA
It counts as functional.

A further assay deals with Motilin receptor (Homo sapiens, UniProt O43193).
Sequence of Motilin receptor (O43193 whole entry): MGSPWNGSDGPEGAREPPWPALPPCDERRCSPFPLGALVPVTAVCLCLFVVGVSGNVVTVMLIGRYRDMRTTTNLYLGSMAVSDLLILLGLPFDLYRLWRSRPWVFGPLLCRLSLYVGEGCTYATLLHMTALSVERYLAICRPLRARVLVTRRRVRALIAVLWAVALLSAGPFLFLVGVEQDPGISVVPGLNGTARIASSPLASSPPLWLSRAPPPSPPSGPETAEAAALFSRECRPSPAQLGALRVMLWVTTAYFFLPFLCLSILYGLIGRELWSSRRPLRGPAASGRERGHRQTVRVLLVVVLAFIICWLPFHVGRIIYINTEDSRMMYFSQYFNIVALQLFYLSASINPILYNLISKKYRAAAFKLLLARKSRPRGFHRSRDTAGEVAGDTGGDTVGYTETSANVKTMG
Assay [6] deals with T5, Alpha-1A adrenergic receptor (Homo sapiens, UniProt P35348).
T5 sequence (P35348 whole entry): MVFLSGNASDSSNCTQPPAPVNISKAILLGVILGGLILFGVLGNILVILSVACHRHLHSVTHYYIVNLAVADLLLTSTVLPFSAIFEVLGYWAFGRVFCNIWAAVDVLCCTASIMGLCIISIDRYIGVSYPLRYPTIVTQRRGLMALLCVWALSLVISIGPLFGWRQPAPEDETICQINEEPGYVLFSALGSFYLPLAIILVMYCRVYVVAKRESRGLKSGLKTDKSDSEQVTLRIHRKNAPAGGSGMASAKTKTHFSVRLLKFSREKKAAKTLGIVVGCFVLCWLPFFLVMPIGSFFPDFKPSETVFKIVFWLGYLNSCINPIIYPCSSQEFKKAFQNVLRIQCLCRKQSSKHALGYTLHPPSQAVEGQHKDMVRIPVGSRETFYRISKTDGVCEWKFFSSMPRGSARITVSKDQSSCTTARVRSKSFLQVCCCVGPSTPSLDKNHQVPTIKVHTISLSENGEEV
The format is functional, cell-based.

Assay [7] concerns the target T2, Gamma-aminobutyric acid receptor subunit alpha-1. The source holds these as a separate data set.
Assay [8] concerns the target Glutamate receptor ionotropic, NMDA 1 (Rattus norvegicus, UniProt P35439).

This is an account of results in ChEMBL document CHEMBL5291721, “A preclinical secondary pharmacology resource illuminates target-adverse drug reaction associations of marketed drugs” (Nat Commun, 2023).

Usually AC50 stands for the midpoint of the concentration-response curve, whichever way the signal moves.
Note: assay procedure not described here.

Sequence of Cannabinoid receptor 1 (P21554 whole entry): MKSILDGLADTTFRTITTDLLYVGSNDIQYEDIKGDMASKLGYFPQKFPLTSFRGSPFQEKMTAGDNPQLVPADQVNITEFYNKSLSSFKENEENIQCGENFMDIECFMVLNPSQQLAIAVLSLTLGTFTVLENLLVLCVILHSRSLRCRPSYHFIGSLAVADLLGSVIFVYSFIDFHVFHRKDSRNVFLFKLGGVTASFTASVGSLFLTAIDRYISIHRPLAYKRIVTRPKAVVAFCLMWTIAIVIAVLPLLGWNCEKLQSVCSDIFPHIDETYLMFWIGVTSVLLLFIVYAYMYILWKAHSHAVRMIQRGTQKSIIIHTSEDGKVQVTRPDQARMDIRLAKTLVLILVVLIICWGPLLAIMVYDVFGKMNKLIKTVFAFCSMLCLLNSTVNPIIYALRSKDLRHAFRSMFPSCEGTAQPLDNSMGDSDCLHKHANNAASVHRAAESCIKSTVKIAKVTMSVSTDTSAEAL
T2 sequence (P62813 whole entry): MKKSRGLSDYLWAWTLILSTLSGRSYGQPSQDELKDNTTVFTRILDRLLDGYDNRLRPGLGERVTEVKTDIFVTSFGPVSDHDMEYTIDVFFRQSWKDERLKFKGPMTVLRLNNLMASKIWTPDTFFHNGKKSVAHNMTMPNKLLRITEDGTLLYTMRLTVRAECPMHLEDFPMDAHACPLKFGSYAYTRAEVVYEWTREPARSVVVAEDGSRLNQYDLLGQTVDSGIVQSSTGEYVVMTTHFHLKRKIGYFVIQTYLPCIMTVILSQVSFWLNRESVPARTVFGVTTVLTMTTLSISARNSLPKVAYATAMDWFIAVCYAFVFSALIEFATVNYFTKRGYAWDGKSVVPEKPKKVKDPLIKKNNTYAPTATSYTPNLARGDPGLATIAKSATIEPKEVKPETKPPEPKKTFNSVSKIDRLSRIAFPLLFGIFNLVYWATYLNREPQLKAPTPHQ

For `CCOc1nc2cccc(C(=O)O)c2n1Cc1ccc(-c2ccccc2-c2nnn[nH]2)cc1`, the AC50 on Cannabinoid receptor 1 is greater than 30 µM; on Endothelin-1 receptor it was greater than 30 µM; at Histamine H3 receptor, greater than 30 µM; in assay [1] it was greater than 30 µM; in [2], greater than 10 µM; in [3], greater than 30 µM. Further, the AC50 in assay [4] is greater than 10 µM; in [5] it was greater than 30 µM; at Motilin receptor, greater than 30 µM.
`CC(=O)NO` [ACETOHYDROXAMIC ACID]: the AC50 in assay [6] and in assay [7] was greater than 30 µM each time.
For `Cc1nnc(SCC2=C(C(=O)O)N3C(=O)[C@@H](NC(=O)Cn4cnnn4)[C@H]3SC2)s1` [CEFAZOLIN], the half-maximal activity concentration (AC50) (at Cannabinoid receptor 1; at Endothelin-1 receptor; at Histamine H3 receptor; in [1]; in assay [3]; in assay [4]) was greater than 300 µM in each case. Besides, the half-maximal activity concentration (AC50) in assay [8] is greater than 30 µM; in assay [5], greater than 300 µM; at Motilin receptor, greater than 300 µM.
Regarding `CC(C)(O/N=C(\C(=O)N[C@@H]1C(=O)N2C(C(=O)[O-])=C(C[n+]3ccccc3)CS[C@H]12)c1csc(N)n1)C(=O)O` [CEFTAZIDIME], the AC50 (on Cannabinoid receptor 1; on Endothelin-1 receptor; at Histamine H3 receptor; in assay [1]; in assay [3]; in [4]) was greater than 300 µM throughout. Besides, the AC50 in [8] was greater than 30 µM; in assay [5], greater than 300 µM; on Motilin receptor, greater than 300 µM.
Consider `CCCNC(=O)NS(=O)(=O)c1ccc(Cl)cc1` [CHLORPROPAMIDE], for which the AC50 is greater than 30 µM on Cannabinoid receptor 1; greater than 30 µM at Endothelin-1 receptor; greater than 10 µM at Histamine H3 receptor; greater than 30 µM in assay [1]; greater than 10 µM in assay [2]; greater than 10 µM in [3]. For the same molecule, the AC50 is greater than 10 µM in assay [4], greater than 10 µM in assay [8], greater than 30 µM in assay [5] and greater than 10 µM on Motilin receptor.
On to `CCC(=O)O[C@]1(C(=O)CCl)[C@@H](C)C[C@H]2[C@@H]3CCC4=CC(=O)C=C[C@]4(C)[C@@]3(F)[C@@H](O)C[C@@]21C` [CLOBETASOL PROPIONATE], for which the half-maximal activity concentration (AC50) (at Cannabinoid receptor 1; on Endothelin-1 receptor; at Histamine H3 receptor; in assay [1]; in assay [2]; in assay [3]) was greater than 30 µM each time. The AC50 in assay [8] was greater than 30 µM; in [5], greater than 30 µM; at Motilin receptor, 25 µM.
For `Cc1nc(Nc2ncc(C(=O)Nc3c(C)cccc3Cl)s2)cc(N2CCN(CCO)CC2)n1` [DASATINIB], the AC50 was greater than 30 µM at Cannabinoid receptor 1; greater than 30 µM on Endothelin-1 receptor; 12.7 µM at Histamine H3 receptor; greater than 30 µM in [1]; greater than 30 µM in assay [3]; greater than 30 µM in assay [4]. Besides, the AC50 in [8] was greater than 10 µM; in assay [5], greater than 30 µM; on Motilin receptor, greater than 30 µM.
Take `O=C(O)Cc1ccccc1Nc1c(Cl)cccc1Cl` [DICLOFENAC]: the half-maximal activity concentration (AC50) was greater than 30 µM on Cannabinoid receptor 1; greater than 30 µM at Endothelin-1 receptor; greater than 3 µM in assay [6]; greater than 10 µM at Histamine H3 receptor; greater than 30 µM in assay [1]; greater than 10 µM in assay [2]. Moreover, the concentration at half-maximal activity (AC50) (in assay [3]; in assay [4]; in assay [8]; in [5]; at Motilin receptor) was greater than 10 µM in each case.
In assay [7], `CN[C@@H]1[C@H](O[C@H]2[C@H](O[C@H]3[C@H](O)[C@@H](O)[C@H](NC(=N)N)[C@@H](O)[C@@H]3NC(=N)N)O[C@@H](C)[C@]2(O)CO)O[C@@H](CO)[C@H](O)[C@H]1O` [DIHYDROSTREPTOMYCIN] came in with a concentration at half-maximal activity (AC50) greater than 30 µM.
As for `CCCCc1oc2ccc(NS(C)(=O)=O)cc2c1C(=O)c1ccc(OCCCN(CCCC)CCCC)cc1` [DRONEDARONE], the AC50 in assay [6] was 5.92 µM; in assay [7] it was greater than 30 µM.
For the molecule `O=C(O)P(=O)(O)O` [FOSCARNET], the AC50 in assay [6] and in assay [7] was greater than 30 µM throughout.
`COc1c2occc2c(OC)c2c(=O)cc(C)oc12` [KHELLIN]: the AC50 in assay [6] and in assay [7] was greater than 30 µM throughout.
For `CC[C@H](C)C(=O)O[C@H]1C[C@@H](C)C=C2C=C[C@H](C)[C@H](CC[C@@H]3C[C@@H](O)CC(=O)O3)[C@H]21` [LOVASTATIN], the AC50 was greater than 30 µM at Cannabinoid receptor 1; greater than 30 µM at Endothelin-1 receptor; greater than 10 µM at Histamine H3 receptor; greater than 30 µM in assay [1]; greater than 10 µM in assay [2]; greater than 10 µM in assay [3]. In addition, the AC50 in assay [4] was greater than 10 µM; in assay [8], greater than 10 µM; in [5] it was greater than 30 µM; at Motilin receptor, greater than 10 µM.
As for `COC(=O)[C@@H](N)Cc1ccc(O)c(O)c1` [MELEVODOPA], the AC50 in assay [6] and in assay [7] was greater than 30 µM in each case.
For the molecule `C=N[C@@H](C(=O)N[C@@H]1C(=O)N2[C@@H]1SC(C)(C)[C@@H]2C(=O)O)c1ccccc1` [METAMPICILLIN], the concentration at half-maximal activity (AC50) in assay [6] and in assay [7] was greater than 30 µM throughout.
Take `CC[C@@H](CO)NC(=O)[C@@H]1C=C2c3cccc4c3c(cn4C)C[C@H]2N(C)C1` [METHYSERGIDE]: the concentration at half-maximal activity (AC50) on Cannabinoid receptor 1 is greater than 30 µM; at Endothelin-1 receptor it was greater than 30 µM; at Histamine H3 receptor it was greater than 10 µM; in assay [1], greater than 30 µM; in assay [2] it was greater than 10 µM; in assay [3], greater than 30 µM. Moreover, the AC50 in [4] was greater than 10 µM; in assay [8], greater than 10 µM; in assay [5], greater than 30 µM; at Motilin receptor, greater than 10 µM.
Turning to `CN1Cc2c(N)cccc2C(c2ccccc2)C1` (stereo unspecified) [NOMIFENSINE], the AC50 (at Cannabinoid receptor 1; at Endothelin-1 receptor; at Histamine H3 receptor; in assay [1]; in assay [2]; in assay [3]) was greater than 30 µM each time. The AC50 (in assay [4]; in assay [8]; in [5]; at Motilin receptor) was greater than 30 µM each time.
On to `CCCCC1C(=O)N(c2ccccc2)N(c2ccc(O)cc2)C1=O` (stereo unspecified) [OXYPHENBUTAZONE ANHYDROUS], for which the AC50 in assay [6] and in assay [7] was greater than 30 µM each time.
For `CC(C)[C@H](N)C(=O)OCCOCn1cnc2c(=O)[nH]c(N)nc21` [VALACYCLOVIR], the AC50 was greater than 30 µM on Cannabinoid receptor 1; greater than 30 µM at Endothelin-1 receptor; greater than 10 µM at Histamine H3 receptor; greater than 30 µM in [1]; greater than 10 µM in assay [2]; greater than 10 µM in [3]. Besides, the AC50 in assay [4] is greater than 10 µM; in assay [8] it was greater than 10 µM; in assay [5], greater than 30 µM; on Motilin receptor it was greater than 10 µM.
